Source: patent US11458138B2 (Novartis AG, priority 2017, dated 2022)

What was measured:
[1] = tested on: Phospho-YAP (SER127) in HaCaT cells; assay: pYAP HTRF Assay (HaCaT Cells); type: cell-based, human; conditions: Homo sapiens, 2 hours
Method: The pYAP HTRF assay was performed using the Phospho-YAP (SER127) 10000 test kit (CisBio, catalogue number 64YAPPEH) according to manufacturer's instructions. Briefly, HaCaT cells were suspended at 1.1×10^6 cells/mL in DMEM (no phenol red)+10% FBS with penicillin-streptomycin-glutamine. 5 μL of cells were dispensed into 1536 well white solid bottom, tissue culture treated plates (5500 cells/well), and incubated for 48 hours at 37° C. 50 nL test compound was transferred into the assay plates containing HaCaT cells using Pintool (GNF) and incubated for 2 hours. […] The plates were incubated overnight (20 hrs) at room temperature covered with metal lids. Plates were read on Pherastar (BMG Labtech) for HTRF (665 nm/620 nm).

[2] = tested on: YAP nuclear translocation in HaCaT cells; assay: YAP Translocation Assay (HaCaT Cells); type: cell-based, human; conditions: Homo sapiens, 24 hours
In short: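 HaCaT cells (20,000/well) in DMEM + 10% FBS were plated overnight at 37° C, then exposed to compound for 24 h at 37° C. Cells were fixed with PFA, permeabilized with 0.1% Triton/1.5% BSA and imaged by high-content imaging.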

LATS1 = LATS1 (Homo sapiens (Human), UniProt O95835); assay: LATS1 biochemical assay (Table 1A, Compound Examples 1-290; method in the earlier part)
Sequence of LATS1 (O95835 whole entry, looked up): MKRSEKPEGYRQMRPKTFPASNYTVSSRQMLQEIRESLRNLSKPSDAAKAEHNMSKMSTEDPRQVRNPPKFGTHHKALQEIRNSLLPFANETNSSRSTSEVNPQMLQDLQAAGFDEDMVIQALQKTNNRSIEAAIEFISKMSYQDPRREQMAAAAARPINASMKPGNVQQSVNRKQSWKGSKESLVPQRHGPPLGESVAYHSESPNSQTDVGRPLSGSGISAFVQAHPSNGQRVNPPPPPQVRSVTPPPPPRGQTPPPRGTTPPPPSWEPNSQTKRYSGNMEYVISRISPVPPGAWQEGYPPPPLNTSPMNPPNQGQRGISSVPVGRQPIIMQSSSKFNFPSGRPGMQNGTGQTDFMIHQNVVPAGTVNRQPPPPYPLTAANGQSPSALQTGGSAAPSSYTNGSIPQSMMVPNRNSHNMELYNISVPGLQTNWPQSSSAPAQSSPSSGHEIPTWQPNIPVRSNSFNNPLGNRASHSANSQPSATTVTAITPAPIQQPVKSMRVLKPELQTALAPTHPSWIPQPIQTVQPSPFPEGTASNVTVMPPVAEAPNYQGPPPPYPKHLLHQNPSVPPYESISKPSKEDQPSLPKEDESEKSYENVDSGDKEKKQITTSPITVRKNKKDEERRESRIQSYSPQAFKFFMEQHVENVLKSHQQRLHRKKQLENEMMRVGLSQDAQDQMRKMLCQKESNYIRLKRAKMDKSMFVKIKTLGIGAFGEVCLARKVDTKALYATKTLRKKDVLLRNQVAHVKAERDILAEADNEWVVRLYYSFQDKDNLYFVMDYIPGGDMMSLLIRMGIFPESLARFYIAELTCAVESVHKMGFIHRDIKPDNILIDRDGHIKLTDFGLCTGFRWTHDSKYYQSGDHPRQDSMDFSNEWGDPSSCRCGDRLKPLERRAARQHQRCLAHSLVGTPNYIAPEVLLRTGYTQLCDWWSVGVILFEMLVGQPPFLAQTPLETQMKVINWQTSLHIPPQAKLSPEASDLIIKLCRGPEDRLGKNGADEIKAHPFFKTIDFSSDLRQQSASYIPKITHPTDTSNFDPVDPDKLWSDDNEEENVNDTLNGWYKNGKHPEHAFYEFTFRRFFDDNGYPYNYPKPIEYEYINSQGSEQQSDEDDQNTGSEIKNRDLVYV
Sequence of LATS1 (Q7L9L4 whole entry partner, looked up): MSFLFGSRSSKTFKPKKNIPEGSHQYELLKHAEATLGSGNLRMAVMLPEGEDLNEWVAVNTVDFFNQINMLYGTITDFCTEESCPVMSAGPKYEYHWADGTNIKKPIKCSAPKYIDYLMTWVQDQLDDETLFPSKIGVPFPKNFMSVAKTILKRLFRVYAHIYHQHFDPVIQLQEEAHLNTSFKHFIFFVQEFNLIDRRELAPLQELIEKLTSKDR

Row | IC50 (LATS1) | Compound | IC50 [1] | EC50 [2]
1 | 0.017 µM | CC(O)C(C)Nc1nc(-c2ccncc2)nc2cnccc12 (stereo not drawn) [Example 24, 3-{[2-(pyridin-4-yl)pyrido[3,4-d]pyrimidin-4-yl]amino}butan-2-ol] | 34.7 µM | 33.1 µM
2 | 0.031 µM | O[C@@H]1CCC[C@@H]1Nc1nc(-c2ccncc2)nc2cnccc12 [Example 26, (1R,2S)-2-{[2-(pyridin-4-yl)pyrido[3,4-d]pyrimidin-4-yl]amino}cyclopentan-1-ol] | 54.6 µM | > 100 µM
3 | 0.047 µM | COC(=O)C(C)(C)Nc1nc(-c2ccncc2)nc2cnccc12 [Example 32, Methyl 2-methyl-2-{[2-(pyridin-4-yl)pyrido[3,4-d]pyrimidin-4-yl]amino}propanoate] | > 10 µM | > 20 µM
4 | 0.24 µM | FC(F)(F)C(Cc1ccccc1)Nc1nc(-c2ccncc2)nc2cnccc12 (stereo not drawn) [Example 38, 2-(pyridin-4-yl)-N-(1,1,1-trifluoro-3-phenylpropan-2-yl)pyrido[3,4-d]pyrimidin-4-amine] | > 10 µM | > 20 µM
5 | 0.708 µM | CS(=O)(=O)CCNc1nc(-c2ccncc2)nc2cnccc12 [Example 41, N-(2-methanesulfonylethyl)-2-(pyridin-4-yl)pyrido[3,4-d]pyrimidin-4-amine] | > 10 µM | > 20 µM
6 | > 2.5 µM | O=C(O)CC(Nc1nc(-c2ccncc2)nc2cnccc12)C(F)(F)F (stereo not drawn) [Example 44, 4,4,4-trifluoro-3-{[2-(pyridin-4-yl)pyrido[3,4-d]pyrimidin-4-yl]amino}butanoic acid] | > 10 µM | > 20 µM
7 | 0.006 µM | OCC1(Nc2nc(-c3ccncc3)nc3cnccc23)CCCC1 [Example 51, (1-{[2-(pyridin-4-yl)pyrido[3,4-d]pyrimidin-4-yl]amino}cyclopentyl)methanol] | 57.8 µM | 4.39 µM
8 | 0.012 µM | COC1CC(Nc2nc(-c3ccncc3)nc3cnccc23)C1 (stereo not drawn) [Example 52, N-(3-methoxycyclobutyl)-2-(pyridin-4-yl)pyrido[3,4-d]pyrimidin-4-amine] | 11.3 µM | > 20 µM
9 | 0.46 µM | CCOC(=O)C1(Nc2nc(-c3ccncc3)nc3cnccc23)CCC1 [Example 55, ethyl 1-{[2-(pyridin-4-yl)pyrido[3,4-d]pyrimidin-4-yl]amino}cyclobutane-1-carboxylate] | > 10 µM | > 20 µM
10 | 1.16 µM | O=C(O)C1(Nc2nc(-c3ccncc3)nc3cnccc23)CCC1 [Example 56, 1-{[2-(pyridin-4-yl)pyrido[3,4-d]pyrimidin-4-yl]amino}cyclobutane-1-carboxylic acid] | > 10 µM | > 20 µM
11 | 0.001 µM | CCC(C)(C)Nc1nc(-c2ccncc2)nc2cnccc12 [Example 63, N-(2-methylbutan-2-yl)-2-(pyridin-4-yl)pyrido[3,4-d]pyrimidin-4-amine] | 0.131 µM | 0.338 µM
12 | 0.003 µM | C#CC(C)(C)Nc1nc(-c2ccncc2)nc2cnccc12 [Example 69, N-(2-methylbut-3-yn-2-yl)-2-(pyridin-4-yl)pyrido[3,4-d]pyrimidin-4-amine] | 4.72 µM | 11.5 µM
13 | 0.006 µM | CCC(CC)Nc1nc(-c2ccncc2)nc2cnccc12 [Example 73, N-(pentan-3-yl)-2-(pyridin-4-yl)pyrido[3,4-d]pyrimidin-4-amine] | 9.07 µM | 8.26 µM
14 | 0.006 µM | CC(C)(CN1CCOCC1)Nc1nc(-c2ccncc2)nc2cnccc12 [Example 74] | 3.4 µM | 12.7 µM
15 | 0.009 µM | OCC(CC(F)(F)F)Nc1nc(-c2ccncc2)nc2cnccc12 (stereo not drawn) [Example 76, 4,4,4-trifluoro-2-{[2-(pyridin-4-yl)pyrido[3,4-d]pyrimidin-4-yl]amino}butan-1-ol] | 6.42 µM | 9.41 µM
16 | 0.009 µM | CCCCCNc1nc(-c2ccncc2)nc2cnccc12 [Example 77, N-pentyl-2-(pyridin-4-yl)pyrido[3,4-d]pyrimidin-4-amine] | > 100 µM | 13.4 µM
17 | 0.011 µM | CCC(CO)Nc1nc(-c2ccncc2)nc2cnccc12 (stereo not drawn) [Example 78, 2-{[2-(pyridin-4-yl)pyrido[3,4-d]pyrimidin-4-yl]amino}butan-1-ol] | 12.1 µM | 14.3 µM
18 | 0.011 µM | CC(C)(Cc1ccc(F)cc1)Nc1nc(-c2ccncc2)nc2cnccc12 [Example 80, N-[1-(4-fluorophenyl)-2-methylpropan-2-yl]-2-(pyridin-4-yl)pyrido[3,4-d]pyrimidin-4-amine] | 21.6 µM | 12.9 µM
19 | 0.011 µM | CC(C)(Nc1nc(-c2ccncc2)nc2cnccc12)c1ccccc1 [Example 81, N-(2-phenylpropan-2-yl)-2-(pyridin-4-yl)pyrido[3,4-d]pyrimidin-4-amine] | 42.8 µM | 17 µM
20 | 0.013 µM | Fc1ccccc1Nc1nc(-c2ccncc2)nc2cnccc12 [Example 82, N-(2-fluorophenyl)-2-(pyridin-4-yl)pyrido[3,4-d]pyrimidin-4-amine] | > 100 µM | > 20 µM
21 | 0.017 µM | CC(C)(Nc1nc(-c2ccncc2)nc2cnccc12)c1ccc(F)cc1 [Example 83, N-[2-(4-fluorophenyl)propan-2-yl]-2-(pyridin-4-yl)pyrido[3,4-d]pyrimidin-4-amine] | 42.1 µM | 28.2 µM
22 | 0.026 µM | CNc1nc(-c2ccncc2)nc2cnccc12 [Example 86, N-methyl-2-(pyridin-4-yl)pyrido[3,4-d]pyrimidin-4-amine] | 56 µM | > 20 µM
23 | 0.03 µM | OC1(CNc2nc(-c3ccncc3)nc3cnccc23)CCCC1 [Example 87, 1-({[2-(pyridin-4-yl)pyrido[3,4-d]pyrimidin-4-yl]amino}methyl)cyclopentan-1-ol] | 51.6 µM | > 20 µM
24 | 0.037 µM | CN(C)c1nc(-c2ccncc2)nc2cnccc12 [Example 88, N,N-dimethyl-2-(pyridin-4-yl)pyrido[3,4-d]pyrimidin-4-amine] | 69.8 µM | 29.3 µM
25 | 0.044 µM | Cc1ccccc1Nc1nc(-c2ccncc2)nc2cnccc12 [Example 89, N-(2-methylphenyl)-2-(pyridin-4-yl)pyrido[3,4-d]pyrimidin-4-amine] | > 100 µM | > 100 µM
26 | 0.148 µM | COc1ccc(Nc2nc(-c3ccncc3)nc3cnccc23)cc1 [Example 91, N-(4-methoxyphenyl)-2-(pyridin-4-yl)pyrido[3,4-d]pyrimidin-4-amine] | > 10 µM | > 20 µM
27 | > 1.44 µM | Fc1cccc(Nc2nc(-c3ccncc3)nc3cnccc23)c1 [Example 95, N-(3-fluorophenyl)-2-(pyridin-4-yl)pyrido[3,4-d]pyrimidin-4-amine] | > 10 µM | > 20 µM

Row | Compound | IC50 (LATS1) | IC50 [1] | EC50 [2]
28 | CC(C)(COC(C)(C)C)Nc1nc(-c2ccncc2)nc2cnccc12 [Example 75, N-[1-(tert-butoxy)-2-methylpropan-2-yl]-2-(pyridin-4-yl)pyrido[3,4-d]pyrimidin-4-amine] | 0.008 µM | 3.8 µM | 6.91 µM
